Measured values: ChEMBL document CHEMBL4680138, “A 18β-glycyrrhetinic acid conjugate with Vorinostat degrades HDAC3 and HDAC6 with improved antitumor effects” (Eur J Med Chem, 2020)
Calls of active or inactive are those of the source. The rule behind the calls is not given here.

Key:
[1] = AUC (0 to infinity) in Sprague-Dawley rat at 5 mg/kg, iv measured up to 24 hrs by LC-MS/MS analysis; format: ADME, organism-based; set-up: route intravenous, dose 5 mg/kg, time <=24; settings: in vivo
HL-60 [2] = assay: Induction of apoptosis in human HL-60 cells assessed as necrotic cells at 1 uM measured after 24 hrs by Annexin-V/FITC and propidium iodide staining based flow cytometry (reference value: 1.01 %); format: functional
HL-60 [3] = assay: Induction of apoptosis in human HL-60 cells assessed as early apoptotic cells at 1 uM measured after 24 hrs by Annexin-V/FITC and propidium iodide staining based flow cytometry (reference value: 2.46 %); format: functional
Histone deacetylase 2 = Histone deacetylase 2 (Homo sapiens, UniProt Q92769); assay: (§1) Inhibition of recombinant human HDAC2 expressed in baculovirus infected Sf9 cells using Boc-Lys(Ac)-AMC as substrate preincubated for 15 mins followed by substrate addition and measured after 60 mins by fluorescence based assay; format: cell-based
Chain of Histone deacetylase 2 (Q92769 whole entry): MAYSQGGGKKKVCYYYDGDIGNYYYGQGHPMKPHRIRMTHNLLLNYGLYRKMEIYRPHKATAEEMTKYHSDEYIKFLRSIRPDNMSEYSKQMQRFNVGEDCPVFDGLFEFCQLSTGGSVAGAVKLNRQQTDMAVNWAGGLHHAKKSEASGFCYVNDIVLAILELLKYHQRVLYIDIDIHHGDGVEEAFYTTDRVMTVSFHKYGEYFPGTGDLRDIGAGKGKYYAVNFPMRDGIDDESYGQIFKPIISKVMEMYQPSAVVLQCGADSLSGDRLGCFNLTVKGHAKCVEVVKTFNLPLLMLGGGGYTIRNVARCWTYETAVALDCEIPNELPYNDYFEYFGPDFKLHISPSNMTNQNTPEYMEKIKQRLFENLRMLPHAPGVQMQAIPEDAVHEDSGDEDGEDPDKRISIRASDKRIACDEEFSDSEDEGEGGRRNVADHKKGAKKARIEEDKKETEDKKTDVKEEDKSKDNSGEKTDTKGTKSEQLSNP

[4] = Cmax in Sprague-Dawley rat at 5 mg/kg, iv measured up to 24 hrs by LC-MS/MS analysis; format: ADME, organism-based; set-up: route intravenous, dose 5 mg/kg, time <=24; settings: in vivo
[5] = target: Histone deacetylase 3/Nuclear receptor corepressor 2 (HDAC3/NCoR2) (Homo sapiens, UniProt O15379); assay: as §1, with “of C-terminal His-tagged” for “of”, “HDAC3 (1 to 428 residues)/N-terminal GST-tagged recombinant human NCoR2 (395 to 489 residues) co-expressed” for “HDAC2 expressed”
Chain of Histone deacetylase 3/Nuclear receptor corepressor 2 (HDAC3/NCoR2) (O15379 whole entry, the tested form may be a part): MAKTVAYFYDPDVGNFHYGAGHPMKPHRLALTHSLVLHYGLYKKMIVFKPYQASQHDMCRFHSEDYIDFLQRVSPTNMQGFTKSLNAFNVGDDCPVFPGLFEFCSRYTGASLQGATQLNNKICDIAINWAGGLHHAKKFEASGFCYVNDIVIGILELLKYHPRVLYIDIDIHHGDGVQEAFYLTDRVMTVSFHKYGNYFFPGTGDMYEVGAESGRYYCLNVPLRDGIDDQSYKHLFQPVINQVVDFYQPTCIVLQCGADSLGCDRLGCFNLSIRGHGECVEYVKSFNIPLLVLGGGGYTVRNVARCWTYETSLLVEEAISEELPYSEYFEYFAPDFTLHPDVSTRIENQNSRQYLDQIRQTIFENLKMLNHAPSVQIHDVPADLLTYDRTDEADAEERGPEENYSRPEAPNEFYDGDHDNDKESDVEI
Chain of Histone deacetylase 3/Nuclear receptor corepressor 2 (HDAC3/NCoR2) (Q9Y618 whole entry, further chain, the tested form may be a part): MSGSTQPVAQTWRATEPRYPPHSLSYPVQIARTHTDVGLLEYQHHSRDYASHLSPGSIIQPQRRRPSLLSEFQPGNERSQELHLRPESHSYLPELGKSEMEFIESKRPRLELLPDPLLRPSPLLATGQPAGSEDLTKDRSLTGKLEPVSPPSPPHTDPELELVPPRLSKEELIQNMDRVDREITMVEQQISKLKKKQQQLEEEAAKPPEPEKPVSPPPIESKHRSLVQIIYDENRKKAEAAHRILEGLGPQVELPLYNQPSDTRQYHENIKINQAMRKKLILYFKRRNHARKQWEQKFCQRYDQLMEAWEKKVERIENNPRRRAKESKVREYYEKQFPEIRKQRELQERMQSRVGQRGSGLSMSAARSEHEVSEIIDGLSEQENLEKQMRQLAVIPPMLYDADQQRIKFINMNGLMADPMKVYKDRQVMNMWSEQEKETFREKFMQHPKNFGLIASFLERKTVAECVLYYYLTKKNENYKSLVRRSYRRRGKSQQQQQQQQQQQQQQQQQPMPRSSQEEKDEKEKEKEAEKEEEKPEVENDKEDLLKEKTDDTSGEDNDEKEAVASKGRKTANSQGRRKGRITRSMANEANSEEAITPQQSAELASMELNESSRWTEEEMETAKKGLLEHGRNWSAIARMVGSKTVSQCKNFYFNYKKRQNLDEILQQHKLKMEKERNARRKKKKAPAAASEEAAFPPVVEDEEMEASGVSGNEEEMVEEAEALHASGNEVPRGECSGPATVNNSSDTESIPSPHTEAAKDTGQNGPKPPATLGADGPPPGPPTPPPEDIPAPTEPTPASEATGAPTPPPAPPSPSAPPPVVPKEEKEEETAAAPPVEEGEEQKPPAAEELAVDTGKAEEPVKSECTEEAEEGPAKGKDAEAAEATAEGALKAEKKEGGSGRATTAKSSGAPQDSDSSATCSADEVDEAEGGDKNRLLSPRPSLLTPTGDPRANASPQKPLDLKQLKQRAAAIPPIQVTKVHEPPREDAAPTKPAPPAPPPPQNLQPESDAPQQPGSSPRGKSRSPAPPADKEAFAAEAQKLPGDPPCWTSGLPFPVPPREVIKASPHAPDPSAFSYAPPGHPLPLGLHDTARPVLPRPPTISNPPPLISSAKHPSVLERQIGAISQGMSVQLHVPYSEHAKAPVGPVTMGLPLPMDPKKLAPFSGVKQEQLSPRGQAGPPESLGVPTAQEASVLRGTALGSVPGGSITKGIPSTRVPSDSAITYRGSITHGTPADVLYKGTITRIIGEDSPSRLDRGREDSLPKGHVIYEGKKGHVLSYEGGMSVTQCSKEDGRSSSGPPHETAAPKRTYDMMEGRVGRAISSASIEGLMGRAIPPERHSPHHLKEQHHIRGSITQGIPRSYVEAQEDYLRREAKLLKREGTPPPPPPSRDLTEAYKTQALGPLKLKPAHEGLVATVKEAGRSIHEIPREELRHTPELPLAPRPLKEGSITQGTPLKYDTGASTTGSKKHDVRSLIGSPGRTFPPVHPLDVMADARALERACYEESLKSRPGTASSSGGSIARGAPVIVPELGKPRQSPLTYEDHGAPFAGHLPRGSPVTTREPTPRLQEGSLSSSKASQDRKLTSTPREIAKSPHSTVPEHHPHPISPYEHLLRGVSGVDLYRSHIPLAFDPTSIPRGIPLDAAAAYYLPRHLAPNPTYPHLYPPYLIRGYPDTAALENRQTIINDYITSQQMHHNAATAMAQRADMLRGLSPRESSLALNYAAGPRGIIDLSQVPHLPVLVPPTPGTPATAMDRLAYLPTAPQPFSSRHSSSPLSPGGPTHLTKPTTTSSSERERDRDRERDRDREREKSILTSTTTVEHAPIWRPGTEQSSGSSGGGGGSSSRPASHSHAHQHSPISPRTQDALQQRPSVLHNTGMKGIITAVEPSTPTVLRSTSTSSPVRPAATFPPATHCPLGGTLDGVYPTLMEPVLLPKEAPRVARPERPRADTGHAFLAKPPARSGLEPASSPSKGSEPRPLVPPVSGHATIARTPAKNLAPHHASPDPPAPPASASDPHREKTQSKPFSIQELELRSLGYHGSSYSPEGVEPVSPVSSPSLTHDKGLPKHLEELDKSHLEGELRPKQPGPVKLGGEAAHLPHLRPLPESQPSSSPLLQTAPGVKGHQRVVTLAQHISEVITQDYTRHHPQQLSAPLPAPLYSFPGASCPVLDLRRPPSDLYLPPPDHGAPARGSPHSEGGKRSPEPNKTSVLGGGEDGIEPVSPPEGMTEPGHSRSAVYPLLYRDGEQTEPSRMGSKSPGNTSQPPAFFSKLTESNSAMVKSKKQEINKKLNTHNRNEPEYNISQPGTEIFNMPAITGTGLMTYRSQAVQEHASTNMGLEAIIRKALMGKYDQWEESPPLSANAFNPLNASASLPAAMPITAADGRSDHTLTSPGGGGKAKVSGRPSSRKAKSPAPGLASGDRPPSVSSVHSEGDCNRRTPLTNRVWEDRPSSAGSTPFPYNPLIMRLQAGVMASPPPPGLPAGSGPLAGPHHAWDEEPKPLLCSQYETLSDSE

HL-60 [6] = assay: Induction of apoptosis in human HL-60 cells assessed as early apoptotic cells at 2 uM measured after 24 hrs by Annexin-V/FITC and propidium iodide staining based flow cytometry (reference value: 2.46 %); format: functional
HL-60 [7] = assay: Upregulation of acetylated H3 level in human HL-60 cells at 2 uM measured after 12 hrs by Western blot analysis; format: functional, cell-based
HL-60 [8] = assay: Induction of apoptosis in human HL-60 cells assessed as early apoptotic cells at 0.5 uM measured after 24 hrs by Annexin-V/FITC and propidium iodide staining based flow cytometry (reference value: 2.46 %); format: functional
HL-60 [9] = assay: Induction of apoptosis in human HL-60 cells assessed as increase in accumulation at sub-G1 phase at 0.5 uM after 24 hrs by propidium iodide staining based flow cytometry (reference value: 2.72 %); format: functional
PC-3 = assay: Cytotoxicity against human PC-3 cells assessed as reduction in cell viability after 96 hrs by MTT assay; format: functional, cell-based; settings: PC-3, 96 h
HL-60 [10] = assay: Induction of apoptosis in human HL-60 cells assessed as increase in accumulation at sub-G1 phase at 2 uM after 24 hrs by propidium iodide staining based flow cytometry (reference value: 2.72 %); format: functional
HL-60 [11] = assay: Induction of apoptosis in human HL-60 cells assessed as necrotic cells at 0.5 uM measured after 24 hrs by Annexin-V/FITC and propidium iodide staining based flow cytometry (reference value: 1.01 %); format: functional
HL-60 [12] = assay: Induction of apoptosis in human HL-60 cells assessed as necrotic cells at 2 uM measured after 24 hrs by Annexin-V/FITC and propidium iodide staining based flow cytometry (reference value: 1.01 %); format: functional
HL-60 [13] = assay: Induction of apoptosis in human HL-60 cells assessed as increase in accumulation at sub-G1 phase at 1 uM after 24 hrs by propidium iodide staining based flow cytometry (reference value: 2.72 %); format: functional
HL-60 [14] = assay: Induction of apoptosis in human HL-60 cells assessed as live cells at 2 uM measured after 24 hrs by Annexin-V/FITC and propidium iodide staining based flow cytometry (reference value: 89.29 %); format: functional
HL-60 [15] = assay: Induction of apoptosis in human HL-60 cells assessed as live cells at 1 uM measured after 24 hrs by Annexin-V/FITC and propidium iodide staining based flow cytometry (reference value: 89.29 %); format: functional
HL-60 [16] = assay: Induction of apoptosis in human HL-60 cells assessed as live cells at 0.5 uM measured after 24 hrs by Annexin-V/FITC and propidium iodide staining based flow cytometry (reference value: 89.29 %); format: functional
[17] = target: T1, Protein deacetylase HDAC6 (Homo sapiens, UniProt Q9UBN7); assay: Inhibition of recombinant C-terminal FLAG-tagged full length human HDAC6 expressed in baculovirus infected Sf9 cells using Boc-Lys(Ac)-AMC as substrate preincubated for 15 mins followed by substrate addition and measured after 60 mins by fluorescence based assay
T1 sequence (Q9UBN7 whole entry): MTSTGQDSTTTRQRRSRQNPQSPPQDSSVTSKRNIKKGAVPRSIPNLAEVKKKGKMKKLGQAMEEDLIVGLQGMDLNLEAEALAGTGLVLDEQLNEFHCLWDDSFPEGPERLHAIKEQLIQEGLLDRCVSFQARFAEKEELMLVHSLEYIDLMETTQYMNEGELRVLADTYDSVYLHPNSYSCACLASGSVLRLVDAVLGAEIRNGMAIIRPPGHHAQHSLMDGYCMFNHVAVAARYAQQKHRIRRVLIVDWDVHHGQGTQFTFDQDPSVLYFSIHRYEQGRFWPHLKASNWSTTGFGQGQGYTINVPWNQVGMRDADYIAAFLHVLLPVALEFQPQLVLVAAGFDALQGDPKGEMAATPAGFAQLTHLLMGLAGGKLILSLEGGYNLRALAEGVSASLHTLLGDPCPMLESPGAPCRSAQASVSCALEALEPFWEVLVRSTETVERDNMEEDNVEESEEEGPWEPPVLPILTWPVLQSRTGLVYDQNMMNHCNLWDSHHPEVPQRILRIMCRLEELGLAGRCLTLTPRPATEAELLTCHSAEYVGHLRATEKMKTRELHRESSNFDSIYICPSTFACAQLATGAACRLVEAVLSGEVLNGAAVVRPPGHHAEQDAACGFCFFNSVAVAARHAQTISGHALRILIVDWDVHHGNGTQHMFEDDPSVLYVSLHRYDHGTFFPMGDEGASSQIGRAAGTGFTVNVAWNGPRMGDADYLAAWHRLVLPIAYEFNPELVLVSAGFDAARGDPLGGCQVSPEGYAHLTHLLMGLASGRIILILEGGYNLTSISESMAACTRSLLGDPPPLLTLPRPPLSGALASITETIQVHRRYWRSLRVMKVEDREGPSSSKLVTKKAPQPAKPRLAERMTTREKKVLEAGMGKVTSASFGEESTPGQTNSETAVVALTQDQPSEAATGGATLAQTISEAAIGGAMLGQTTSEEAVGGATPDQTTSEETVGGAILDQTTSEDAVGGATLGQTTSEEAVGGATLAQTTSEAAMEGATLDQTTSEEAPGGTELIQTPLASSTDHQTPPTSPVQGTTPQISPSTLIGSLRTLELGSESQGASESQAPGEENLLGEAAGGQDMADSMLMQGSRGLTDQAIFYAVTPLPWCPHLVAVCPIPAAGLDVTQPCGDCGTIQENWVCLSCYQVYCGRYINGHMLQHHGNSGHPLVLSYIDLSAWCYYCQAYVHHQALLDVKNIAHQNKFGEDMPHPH

HL-60 [18] = assay: Induction of apoptosis in human HL-60 cells assessed as late apoptotic cells at 2 uM measured after 24 hrs by Annexin-V/FITC and propidium iodide staining based flow cytometry (reference value: 7.24 %); format: functional
HL-60 [19] = assay: Induction of apoptosis in human HL-60 cells assessed as late apoptotic cells at 1 uM measured after 24 hrs by Annexin-V/FITC and propidium iodide staining based flow cytometry (reference value: 7.24 %); format: functional
HL-60 [20] = assay: Upregulation of PARP cleavage in human HL-60 cells at 2 uM measured after 12 hrs by Western blot analysis; format: functional, cell-based
Histone deacetylase 1 = Histone deacetylase 1 (Homo sapiens, UniProt Q13547); assay: Inhibition of recombinant human C-terminal FLAG/His-tagged HDAC1 (1 to 482 residues) expressed in Sf9 insect cells using Boc-Lys (Ac)-AMC as substrate preincubated for 15 mins followed by substrate addition and measured after 60 mins by fluorescence based assay
Chain of Histone deacetylase 1 (Q13547 whole entry, the tested form may be a part): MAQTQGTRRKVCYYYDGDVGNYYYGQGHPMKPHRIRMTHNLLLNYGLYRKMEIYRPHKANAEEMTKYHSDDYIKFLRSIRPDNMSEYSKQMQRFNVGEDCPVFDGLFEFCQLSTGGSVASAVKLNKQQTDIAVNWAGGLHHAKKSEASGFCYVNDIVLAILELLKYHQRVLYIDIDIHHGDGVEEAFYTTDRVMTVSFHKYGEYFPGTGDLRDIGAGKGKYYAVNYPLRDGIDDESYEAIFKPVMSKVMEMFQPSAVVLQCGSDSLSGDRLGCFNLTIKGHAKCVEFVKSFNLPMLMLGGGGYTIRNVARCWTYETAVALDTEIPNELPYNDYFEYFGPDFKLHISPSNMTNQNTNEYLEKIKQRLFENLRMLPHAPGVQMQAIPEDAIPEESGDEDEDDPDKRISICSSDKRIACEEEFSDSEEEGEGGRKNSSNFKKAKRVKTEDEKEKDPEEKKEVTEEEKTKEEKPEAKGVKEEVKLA

HL-60 [21] = assay: Induction of apoptosis in human HL-60 cells assessed as late apoptotic cells at 0.5 uM measured after 24 hrs by Annexin-V/FITC and propidium iodide staining based flow cytometry (reference value: 7.24 %); format: functional
HL-60 [22] = assay: Antiproliferative activity against human HL-60 cells assessed as cell growth inhibition after 72 hrs by trypan blue staining based cell counting assay; format: functional; settings: HL-60, 72 h
[23] = Half life in Sprague-Dawley rat at 5 mg/kg, iv measured up to 24 hrs by LC-MS/MS analysis; format: ADME, organism-based; settings: in vivo
HL-60 [24] = assay: Upregulation of acetylated alpha-tubulin level in human HL-60 cells at 2 uM measured after 12 hrs by Western blot analysis; format: functional, cell-based

- AUC(0-inf) [1]: 3780 ng·h/mL
- IC50 (Histone deacetylase 2): 4830 nM
- Cmax [4]: 10800 ng/mL
- IC50 [5]: 635 nM
- IC50 [17]: 368 nM
- IC50 (Histone deacetylase 1): 2510 nM
- IC50 (HL-60 [22]): 370 nM
- half-life [23]: 16.8 h
SMILES: CC1(C)C(=O)C(C#N)=C[C@]2(C)[C@H]3C(=O)C=C4[C@@H]5C[C@@](C)(C(=O)N6CCN(c7ccc(NC(=O)CCCCCCC(=O)NO)cc7)CC6)CC[C@]5(C)CC[C@@]4(C)[C@]3(C)CC[C@@H]12
- Activity (HL-60 [2]): 20.73%
- Activity (HL-60 [3]): 1.17%
- Activity (HL-60 [6]): 2.51%
- Activity (HL-60 [7]): Active
- Activity (HL-60 [8]): 2.92%
- Activity (HL-60 [9]): 27.28%
- IC50 (PC-3): 470 nM
- Activity (HL-60 [10]): 76.29%
- Activity (HL-60 [11]): 3.91%
- Activity (HL-60 [12]): 8.05%
- Activity (HL-60 [13]): 58.14%
- Activity (HL-60 [14]): 23.9%
- Activity (HL-60 [15]): 37.66%
- Activity (HL-60 [16]): 68.63%
- Activity (HL-60 [18]): 65.55%
- Activity (HL-60 [19]): 40.45%
- Activity (HL-60 [20]): Active
- Activity (HL-60 [21]): 24.55%
- Activity (HL-60 [24]): Active
